Assay results reported in ChEMBL document CHEMBL2429745, “Identification of a new class of glucokinase activators through structure-based design” (J Med Chem, 2013).
The source made the active and inactive calls. The rule behind the calls is not given here.

Experiments:
Hexokinase-4 = target: T1, Hexokinase-4 (Homo sapiens, UniProt P35557); assay: Allosteric activation of human glucokinase using glucose as substrate measured every 10 secs for 5 mins
T1 sequence (P35557 whole entry): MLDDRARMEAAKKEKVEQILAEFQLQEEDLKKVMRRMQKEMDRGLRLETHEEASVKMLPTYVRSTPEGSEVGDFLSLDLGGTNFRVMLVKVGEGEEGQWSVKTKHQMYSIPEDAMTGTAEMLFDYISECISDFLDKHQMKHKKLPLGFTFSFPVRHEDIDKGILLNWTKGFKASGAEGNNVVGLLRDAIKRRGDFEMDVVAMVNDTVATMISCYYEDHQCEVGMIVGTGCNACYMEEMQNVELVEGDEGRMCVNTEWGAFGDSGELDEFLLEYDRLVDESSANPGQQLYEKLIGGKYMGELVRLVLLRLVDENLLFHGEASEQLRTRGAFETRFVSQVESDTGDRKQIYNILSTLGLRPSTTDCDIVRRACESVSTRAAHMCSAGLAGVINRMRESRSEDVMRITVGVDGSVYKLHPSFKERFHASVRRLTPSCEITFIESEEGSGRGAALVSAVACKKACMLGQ

Rattus norvegicus = assay: Antidiabetic activity in high fat-fed Zucker diabetic fatty rat assessed as decrease in blood glucose AUC at 50 mg/kg, po after 21 days on high-fat diet measured for 2 hrs post dose by OGTT relative to control; design: scale not given: the % may be the effect or the level left
[1] = Terminal plasma concentration in C57BL/6J mouse at 50 mg/kg, po administered 30 mins measured after 2.5 hrs; type: ADME, organism-based; design: dose 50 mg/kg, route oral; conditions: read-out: Cp(T)
Mus musculus [2] = assay: Antidiabetic activity in C57BL/6J mouse assessed as reduction of glucose excursion at 50 mg/kg, po administered 30 mins prior to glucose challenge measured over 2 hrs by OGTT; type: functional, organism-based; design: dose 50 mg/kg
Mus musculus [3] = assay: Toxicity in C57BL/6J mouse assessed as induction of hypoglycemia at 50 mg/kg, po administered 30 mins prior to glucose challenge measured over 2 hrs; type: organism-based; design: dose 50 mg/kg, route oral; conditions: in vivo

| SMILES | EC50 (Hexokinase-4) | also measured |
| --- | --- | --- |
| Cc1csc(Nc2ncc(SCCn3ccnc3)cc2OCc2ccccc2)n1 | 325 nM | – |
| Cc1csc(Nc2ncc(Sc3ccccc3)cc2OCc2ccccc2)n1 | 208 nM | – |
| Cc1csc(Nc2ncc(SCc3ccccc3)cc2OCc2ccccc2)n1 | 235 nM | – |
| CC(C)c1csc(Nc2ncc(Br)cc2OCc2ccccc2)n1 | 240 nM | – |
| N#C[C@@H]1CCCN1C(=O)CNC12CC3CC(CC(O)(C3)C1)C2 [VILDAGLIPTIN] | – | Activity (Rattus norvegicus): 24% |
| CC(C)Cc1csc(Nc2ncc(Br)cc2OCc2ccccc2)n1 | 356 nM | – |
| CCc1csc(Nc2ncc(Br)cc2OCc2ccccc2)n1 | 562 nM | – |
| CC(C)c1csc(Nc2ncc(SCCn3ccnc3)cc2OCc2ccccc2)n1 | – | concentration at 2.5 h [1]: 4500 ng/mL; Activity (Mus musculus [2]): Active; Activity (Rattus norvegicus): 23%; Activity (Mus musculus [3]): Non-toxic |

Further lines, with some results ahead:

| EC50 (Hexokinase-4) | SMILES | also measured |
| --- | --- | --- |
| 3220 nM | COc1cccc(COc2cccnc2Nc2nc(C)cs2)c1 | – |
| 3440 nM | Cc1csc(Nc2ncccc2OCc2cccc(O)c2)n1 | – |
| 12300 nM | Cc1csc(Nc2ncccc2OCc2ccccn2)n1 | – |
| 7780 nM | Cc1csc(Nc2ncccc2OCc2cccnc2)n1 | – |
| 1700 nM | Cc1csc(Nc2ncccc2OCc2cccc3cccnc23)n1 | – |
| 231 nM | Cc1csc(Nc2ncc(Sc3ccccn3)cc2OCc2ccccc2)n1 | – |
| 796 nM | Cc1csc(Nc2ncc(Cl)cc2OCc2ccccc2)n1 | – |
| 77 nM | Cc1csc(Nc2ncc(SCc3ccccn3)cc2OCc2ccccc2)n1 | – |
| 687 nM | Cc1csc(Nc2ncc(Br)cc2OCc2ccccc2)n1 | – |
